ChEMBL document CHEMBL1140617, “Quantitative structure-activity relationship of sesquiterpene lactones with cytotoxic activity” (2007)
Converted amounts (≈) assume the structure as drawn.

Tested on: KB
Assay: Cytotoxicity against human KB cells
Assay type: functional
Conditions: for EC50: Homo sapiens, KB, read-out: ED50 (the source's name)

C=C1C(=O)O[C@H]2C/C(C)=C/C[C@@H](OC(C)=O)/C(C)=C/[C@@H](OC(C)=O)[C@H]12 [CHAMISSONIN DIACETATE]
pED50: 5.68 | EC50: 2.13 µg/mL

C=C1C(=O)O[C@H]2[C@H]1[C@H](OC(=O)/C(C)=C\C)C[C@](O)(CCl)[C@@H]1[C@H](O)C=C(C)[C@]21O [EUPACHLORIN]
pED50: 6.29 | EC50: 0.21 µg/mL (≈ 0.509 µM)

C=C1C(=O)O[C@H]2[C@H]1[C@H](OC(=O)/C(C)=C\C)C[C@@]1(CO1)[C@@H]1[C@H](O)[C@H]3O[C@@]3(C)[C@]21O
pED50: 5.18 | EC50: 2.6 µg/mL (≈ 6.63 µM)

C=C1C(=O)O[C@@H]2[C@H]1CC[C@H](C)[C@]1(O)C=CC(=O)[C@@]21C [PARTHENIN]
pED50: 5.89 | EC50: 0.34 µg/mL (≈ 1.3 µM)

C=C1C(=O)O[C@@H]2/C=C(/CO)[C@@H](OC(C)=O)C[C@H](O)/C(C)=C\[C@@H](OC(=O)C(C)=CC)[C@@H]12 [EUPACUNOLIN]
pED50: 5.06 | EC50: 3.7 µg/mL (≈ 8.8 µM)

C=C[C@@]12COC(=O)C(=C)[C@@H]1[C@H]1OC(=O)C(=C)[C@@H]1[C@@H](OC(C)=O)C2 [VERNOLEPIN ACETATE]
pED50: 5.07 | EC50: 2.7 µg/mL

C=C1C(=O)O[C@@H]2/C=C(\C)[C@H](O)CC=C(C)CC[C@@H]12 [TAMAULIPIN B]
pED50: 4.98 | EC50: 2.6 µg/mL (≈ 10.5 µM)

C=C1C(=O)O[C@@H]2C[C@@H](C)[C@@H]3C=CC(=O)[C@@]3(C)[C@@H](O)[C@H]12 (stereo in doubt) [HELENALIN]
pED50: 6.12 | EC50: 0.2 µg/mL (≈ 0.762 µM)

C=C1C(=O)O[C@H]2[C@H]1[C@H](OC(=O)/C(C)=C\C)CC(=C)[C@@H]1[C@H](O)[C@H]3O[C@@]3(C)[C@@]12O (stereo in doubt; 28) [EUPATUNDIN]
pED50: 5.98 | EC50: 0.47 µg/mL (≈ 1.25 µM)

C=C[C@@]12COC(=O)C(=C)[C@@H]1[C@H]1OC(=O)C(=C)[C@@H]1[C@@H](OC(=O)C(=C)CO)C2 [VERNODALIN]
pED50: 5.3 | EC50: 1.8 µg/mL (≈ 4.99 µM)

C=C1C(=O)O[C@@H]2/C=C(\C)[C@@H](OC(C)=O)CC=C(C)C(OC(=O)[C@]3(C)O[C@@H]3C)C(O)[C@@H]12 (some centres undefined) [EUPATOCUNOXIN]
pED50: 5.39 | EC50: 1.7 µg/mL (≈ 4.04 µM)

C=C1C(=O)O[C@@H]2/C=C(/C)[C@@H](OC(C)=O)CC(O)/C(C)=C\[C@@H](OC(=O)C3(C)O[C@@H]3C)[C@@H]12 (single isomer, unassigned) [EUPACUNOXIN]
pED50: 5.3 | EC50: 2.1 µg/mL (≈ 4.99 µM)

C=C1C(=O)O[C@@H]2/C=C(\C)[C@@H](OC(C)=O)C/C=C(/C)C(O)[C@@H](OC(=O)/C(C)=C\C)[C@@H]12 (some centres undefined) [EUPATOCUNIN]
pED50: 6.57 | EC50: 0.11 µg/mL (≈ 0.272 µM)

C=C[C@@]12COC(=O)C(=C)[C@@H]1[C@H]1OC(=O)C(=C)[C@@H]1[C@@H](O)C2 [VERNOLEPIN]
pED50: 5.19 | EC50: 1.8 µg/mL (≈ 6.51 µM)

C=C[C@@]12COC(=O)C(=C)[C@@H]1[C@H]1OC(=O)C(=C)[C@@H]1[C@@H](OC(=O)C(=C)C)C2 (single isomer, unassigned) [VERNOLEPIN METHACRYLATE]
pED50: 5.91 | EC50: 0.42 µg/mL (≈ 1.22 µM)

C=C1C(=O)O[C@@H]2[C@H]1CC[C@H](C)[C@]1(O)CCC(=O)[C@@]21C [CORONOPILIN]
pED50: 5.26 | EC50: 1.45 µg/mL (≈ 5.49 µM)

C=C1C(=O)O[C@H]2C[C@@H](C)[C@@H]3C=CC(=O)[C@@]3(C)C[C@H]12 (single isomer, unassigned) [AROMATICIN]
pED50: 5.86 | EC50: 0.34 µg/mL (≈ 1.38 µM)

C=C[C@@]12COC(=O)C(=C)[C@@H]1[C@@H](O)[C@@H]1C(=C)C(=O)O[C@H]1C2 [VERNOMENIN]
pED50: 3.9 | EC50: 35 µg/mL (≈ 127 µM)

C=C1C(=O)O[C@@H]2/C=C(/C)[C@@]3(O)C=C[C@@](C)(C[C@@H](OC(=O)/C(=C\C)COC(C)=O)[C@@H]12)O3 [LIATRIN]
pED50: 5.41 | EC50: 1.62 µg/mL (≈ 3.87 µM)

C=C1C(=O)O[C@H]2[C@H]1[C@H](OC(=O)/C(C)=C/C)C[C@]1(CO1)[C@@H]1[C@H](O)C=C(C)[C@]21O [EUPAROTIN]
ED100: 0.21 µg/mL | pED50: 6.25

C=C1C(=O)O[C@H]2C[C@@H](C)[C@@H]3C=CC(=O)[C@@]3(C)[C@H](O)[C@H]12 (single isomer, unassigned) [MEXICANIN I]
pED50: 5.9 | EC50: 0.33 µg/mL (≈ 1.26 µM)

C=C(C)C(=O)O[C@H]1CC2=C[C@@H](C[C@@]3(C)O[C@@H]3[C@H]3OC(=O)C(=C)[C@@H]31)OC2=O [ELEPHANTOPIN]
pED50: 5.6 | EC50: 0.94 µg/mL (≈ 2.61 µM)

C=C1C(=O)O[C@@H]2[C@H]1[C@@H](O)C[C@H](C)[C@@H]1CCC(=O)[C@@]21C [DESACETYLCONFERTIFLORIN]
pED50: 5.06 | EC50: 2.3 µg/mL (≈ 8.7 µM)

C=C1C(=O)O[C@H]2[C@H]1[C@@H](OC(=O)C=C(C)C)CC1=C[C@@H](C[C@@]3(C)O[C@H]23)OC1=O [ELEPHANTIN]
pED50: 5.49 | EC50: 1.16 µg/mL (≈ 3.1 µM)

C=C1C(=O)O[C@H]2[C@H]1[C@H](OC(=O)/C(C)=C\C)C[C@](O)(CCl)[C@@H]1[C@H](OC(C)=O)C=C(C)[C@]21O [EUPACHLORIN ACETATE]
pED50: 5.21 | EC50: 0.16 µg/mL

C=C[C@]12COC(=O)C(=C)[C@H]1[C@H](OC(C)=O)[C@H]1C(=C)C(=O)O[C@@H]1C2 [VERNOMENIN ACETATE]
pED50: 4.58 | EC50: 8 µg/mL

C=C1C(=O)O[C@@H]2/C=C(\C)CCC=C(C)CC[C@@H]12 [COSTUNOLIDE]
pED50: 5.61 | EC50: 0.57 µg/mL (≈ 2.45 µM)

C=C1C(=O)O[C@@H]2[C@H]1CC[C@H](C)[C@@H]1C[C@@H](O)C(=O)[C@@]21C
pED50: 5 | EC50: 2.65 µg/mL (≈ 10 µM)

C=C1C(=O)O[C@@H]2/C=C(\C)C[C@H](O)C=C(C)CC[C@@H]12 [TAMAULIPIN A]
pED50: 5.29 | EC50: 1.26 µg/mL (≈ 5.07 µM)

C=C1C(=O)O[C@@H]2[C@H]1CC[C@H](C)[C@@H]1C=CC(=O)[C@@]21C [AMBROSIN]
pED50: 5.74 | EC50: 0.45 µg/mL (≈ 1.83 µM)

C=C1C(=O)O[C@H]2[C@H]1[C@H](OC(=O)/C(C)=C\C)C[C@](O)(CCl)[C@@H]1[C@H](O)[C@H]3O[C@@]3(C)[C@]21O (single isomer, unassigned) [EUPACHLOROXIN]
pED50: 5.08 | EC50: 3.6 µg/mL (≈ 8.39 µM)

C=C1C(=O)O[C@H]2[C@H]1[C@H](OC(=O)/C(C)=C\C)C[C@]1(CO1)[C@@H]1[C@H](OC(C)=O)C=C(C)[C@]21O [EUPAROTIN ACETATE]
pED50: 6.28 | EC50: 0.22 µg/mL

C=C1C(=O)O[C@H]2[C@H]1[C@H](OC(=O)/C(C)=C\C)CC(=C)[C@@H]1[C@H](O)[C@H]3O[C@@]3(C)[C@@]12O (stereo in doubt; 20) [EUPATUNDIN]
ED50: 0.47 µg/mL (≈ 1.25 µM) | pED50: 6.46

C=C1C(=O)O[C@H]2CC3=C[C@@H](C[C@]4(C)O[C@@H]4[C@@H](O)[C@H]12)OC3=O [ELEPHANTOL]
pED50: 3.91 | EC50: 36 µg/mL (≈ 123 µM)

C=C1C(=O)O[C@@H]2/C=C3\CCC4OC4(C[C@H](OC(=O)C(C)C)[C@@H]12)C(O)OC3 (some centres undefined) [VERNOMYGDIN]
pED50: 5.39 | EC50: 1.5 µg/mL (≈ 4.12 µM)

C=C1C(=O)O[C@H]2C=C(C)[C@H]3[C@@H](OC(C)=O)C[C@@](C)(O)[C@@H]3C[C@H]12 [GAILLARDIN]
pED50: 5.12 | EC50: 2.3 µg/mL (≈ 7.51 µM)

C=C1C(=O)O[C@H]2[C@H]1[C@H](OC(=O)/C(C)=C\C)C[C@]1(CO1)[C@@H]1[C@H](O)[C@H]3O[C@@]3(C)[C@]21O [EUPATOROXIN]
pED50: 5.15 | EC50: 2.8 µg/mL (≈ 7.14 µM)
